Values belong to the molecule of their own block, whether it stands above or below them.
Legend:
[1] = target: Cyclin-dependent kinase 4/cyclin D1 (Homo sapiens) (UniProt P11802+P24385); assay: Inhibition of human CDK4/cyclin D1 at 18.6 nM by HotSpot assay relative to control; format: protein-complex assay
[2] = target: Mitogen-activated protein kinase kinase kinase 8 (Homo sapiens) (UniProt P41279); assay: Inhibition of human COT1 at 18.6 nM by HotSpot assay relative to control
[3] = target: MAP kinase-activated protein kinase 3 (Homo sapiens) (UniProt Q16644); assay: Inhibition of human MAPKAPK3 at 18.6 nM by HotSpot assay relative to control
Chain of MAP kinase-activated protein kinase 3 (Homo sapiens) (Q16644 whole entry, looked up): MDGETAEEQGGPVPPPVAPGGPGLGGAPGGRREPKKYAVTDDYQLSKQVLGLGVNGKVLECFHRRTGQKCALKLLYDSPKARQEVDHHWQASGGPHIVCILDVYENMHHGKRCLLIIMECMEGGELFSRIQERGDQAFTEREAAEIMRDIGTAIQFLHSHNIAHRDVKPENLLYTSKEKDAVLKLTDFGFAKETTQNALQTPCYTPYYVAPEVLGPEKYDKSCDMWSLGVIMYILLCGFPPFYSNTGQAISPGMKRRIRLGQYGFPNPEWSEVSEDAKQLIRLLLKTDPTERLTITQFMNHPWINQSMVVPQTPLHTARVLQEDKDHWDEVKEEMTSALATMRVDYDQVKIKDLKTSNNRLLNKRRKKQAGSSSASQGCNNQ

[4] = target: Serine/threonine-protein kinase MARK1 (Homo sapiens) (UniProt Q9P0L2); assay: Inhibition of human MARK1 at 18.6 nM by HotSpot assay relative to control
Chain of Serine/threonine-protein kinase MARK1 (Homo sapiens) (Q9P0L2 whole entry, looked up): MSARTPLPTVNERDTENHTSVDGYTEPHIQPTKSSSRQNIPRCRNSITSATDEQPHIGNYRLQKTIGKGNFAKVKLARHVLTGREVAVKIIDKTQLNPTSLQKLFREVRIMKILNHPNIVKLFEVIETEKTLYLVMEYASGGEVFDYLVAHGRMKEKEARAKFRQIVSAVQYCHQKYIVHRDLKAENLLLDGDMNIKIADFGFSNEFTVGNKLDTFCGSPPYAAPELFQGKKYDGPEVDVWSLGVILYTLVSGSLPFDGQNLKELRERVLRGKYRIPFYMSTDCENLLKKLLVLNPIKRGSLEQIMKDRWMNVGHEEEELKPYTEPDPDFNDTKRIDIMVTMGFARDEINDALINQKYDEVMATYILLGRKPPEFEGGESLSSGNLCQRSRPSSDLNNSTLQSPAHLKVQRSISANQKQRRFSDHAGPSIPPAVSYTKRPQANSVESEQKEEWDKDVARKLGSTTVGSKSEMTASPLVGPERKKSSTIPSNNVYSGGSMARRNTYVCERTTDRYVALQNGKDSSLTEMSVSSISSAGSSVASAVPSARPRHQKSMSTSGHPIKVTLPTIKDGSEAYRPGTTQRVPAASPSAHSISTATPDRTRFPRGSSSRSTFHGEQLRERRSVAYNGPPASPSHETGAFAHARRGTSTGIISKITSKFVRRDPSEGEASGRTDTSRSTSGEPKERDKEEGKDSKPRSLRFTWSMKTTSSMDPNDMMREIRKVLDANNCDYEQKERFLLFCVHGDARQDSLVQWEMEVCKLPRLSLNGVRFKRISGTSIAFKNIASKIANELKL

[5] = target: T1, Serine/threonine-protein kinase Sgk1 (Homo sapiens) (UniProt O00141); assay: Inhibition of human SGK1 at 18.6 nM by HotSpot assay relative to control
T1 sequence (whole entry): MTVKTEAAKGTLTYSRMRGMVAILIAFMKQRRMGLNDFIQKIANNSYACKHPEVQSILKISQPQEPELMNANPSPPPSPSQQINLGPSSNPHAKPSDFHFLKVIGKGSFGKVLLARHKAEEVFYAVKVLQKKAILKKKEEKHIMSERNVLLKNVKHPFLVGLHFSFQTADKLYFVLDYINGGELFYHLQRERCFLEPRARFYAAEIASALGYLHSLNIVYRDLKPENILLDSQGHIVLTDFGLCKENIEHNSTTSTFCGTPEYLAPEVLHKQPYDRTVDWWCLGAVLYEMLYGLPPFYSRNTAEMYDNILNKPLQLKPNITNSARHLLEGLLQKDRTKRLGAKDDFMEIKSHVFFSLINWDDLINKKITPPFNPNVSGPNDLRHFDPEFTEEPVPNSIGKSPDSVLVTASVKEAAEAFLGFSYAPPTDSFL

[6] = target: T2, Serine/threonine-protein kinase TAO3 (Homo sapiens) (UniProt Q9H2K8); assay: Inhibition of human JIK at 18.6 nM by HotSpot assay relative to control
T2 sequence (whole entry): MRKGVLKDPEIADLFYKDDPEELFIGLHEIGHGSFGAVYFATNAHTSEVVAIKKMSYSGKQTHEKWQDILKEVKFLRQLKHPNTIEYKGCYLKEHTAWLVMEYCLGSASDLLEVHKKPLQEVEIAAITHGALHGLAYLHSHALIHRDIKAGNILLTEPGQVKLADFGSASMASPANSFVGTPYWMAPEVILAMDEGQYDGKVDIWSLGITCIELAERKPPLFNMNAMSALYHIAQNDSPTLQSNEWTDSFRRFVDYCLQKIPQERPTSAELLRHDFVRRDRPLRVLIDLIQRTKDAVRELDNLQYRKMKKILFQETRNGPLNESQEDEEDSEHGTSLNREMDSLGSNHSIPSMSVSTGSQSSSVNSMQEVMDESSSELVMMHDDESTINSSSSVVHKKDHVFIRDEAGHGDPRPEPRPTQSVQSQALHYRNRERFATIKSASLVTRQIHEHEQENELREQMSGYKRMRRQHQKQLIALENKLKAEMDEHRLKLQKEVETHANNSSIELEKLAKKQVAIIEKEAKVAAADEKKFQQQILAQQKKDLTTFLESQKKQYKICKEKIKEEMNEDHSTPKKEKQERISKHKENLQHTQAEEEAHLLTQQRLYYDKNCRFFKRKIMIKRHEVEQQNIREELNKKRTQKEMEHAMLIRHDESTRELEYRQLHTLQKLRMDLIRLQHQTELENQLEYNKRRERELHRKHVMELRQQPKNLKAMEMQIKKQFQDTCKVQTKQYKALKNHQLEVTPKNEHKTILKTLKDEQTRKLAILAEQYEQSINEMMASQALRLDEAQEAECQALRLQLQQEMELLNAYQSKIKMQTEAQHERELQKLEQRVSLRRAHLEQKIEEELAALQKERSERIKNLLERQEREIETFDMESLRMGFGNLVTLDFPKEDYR

[7] = target: ALK tyrosine kinase receptor (Homo sapiens) (UniProt Q9UM73); assay: Inhibition of human ALK at 500 nM by HotSpot assay relative to control
Chain of ALK tyrosine kinase receptor (Homo sapiens) (Q9UM73 19-1620 limits assumed): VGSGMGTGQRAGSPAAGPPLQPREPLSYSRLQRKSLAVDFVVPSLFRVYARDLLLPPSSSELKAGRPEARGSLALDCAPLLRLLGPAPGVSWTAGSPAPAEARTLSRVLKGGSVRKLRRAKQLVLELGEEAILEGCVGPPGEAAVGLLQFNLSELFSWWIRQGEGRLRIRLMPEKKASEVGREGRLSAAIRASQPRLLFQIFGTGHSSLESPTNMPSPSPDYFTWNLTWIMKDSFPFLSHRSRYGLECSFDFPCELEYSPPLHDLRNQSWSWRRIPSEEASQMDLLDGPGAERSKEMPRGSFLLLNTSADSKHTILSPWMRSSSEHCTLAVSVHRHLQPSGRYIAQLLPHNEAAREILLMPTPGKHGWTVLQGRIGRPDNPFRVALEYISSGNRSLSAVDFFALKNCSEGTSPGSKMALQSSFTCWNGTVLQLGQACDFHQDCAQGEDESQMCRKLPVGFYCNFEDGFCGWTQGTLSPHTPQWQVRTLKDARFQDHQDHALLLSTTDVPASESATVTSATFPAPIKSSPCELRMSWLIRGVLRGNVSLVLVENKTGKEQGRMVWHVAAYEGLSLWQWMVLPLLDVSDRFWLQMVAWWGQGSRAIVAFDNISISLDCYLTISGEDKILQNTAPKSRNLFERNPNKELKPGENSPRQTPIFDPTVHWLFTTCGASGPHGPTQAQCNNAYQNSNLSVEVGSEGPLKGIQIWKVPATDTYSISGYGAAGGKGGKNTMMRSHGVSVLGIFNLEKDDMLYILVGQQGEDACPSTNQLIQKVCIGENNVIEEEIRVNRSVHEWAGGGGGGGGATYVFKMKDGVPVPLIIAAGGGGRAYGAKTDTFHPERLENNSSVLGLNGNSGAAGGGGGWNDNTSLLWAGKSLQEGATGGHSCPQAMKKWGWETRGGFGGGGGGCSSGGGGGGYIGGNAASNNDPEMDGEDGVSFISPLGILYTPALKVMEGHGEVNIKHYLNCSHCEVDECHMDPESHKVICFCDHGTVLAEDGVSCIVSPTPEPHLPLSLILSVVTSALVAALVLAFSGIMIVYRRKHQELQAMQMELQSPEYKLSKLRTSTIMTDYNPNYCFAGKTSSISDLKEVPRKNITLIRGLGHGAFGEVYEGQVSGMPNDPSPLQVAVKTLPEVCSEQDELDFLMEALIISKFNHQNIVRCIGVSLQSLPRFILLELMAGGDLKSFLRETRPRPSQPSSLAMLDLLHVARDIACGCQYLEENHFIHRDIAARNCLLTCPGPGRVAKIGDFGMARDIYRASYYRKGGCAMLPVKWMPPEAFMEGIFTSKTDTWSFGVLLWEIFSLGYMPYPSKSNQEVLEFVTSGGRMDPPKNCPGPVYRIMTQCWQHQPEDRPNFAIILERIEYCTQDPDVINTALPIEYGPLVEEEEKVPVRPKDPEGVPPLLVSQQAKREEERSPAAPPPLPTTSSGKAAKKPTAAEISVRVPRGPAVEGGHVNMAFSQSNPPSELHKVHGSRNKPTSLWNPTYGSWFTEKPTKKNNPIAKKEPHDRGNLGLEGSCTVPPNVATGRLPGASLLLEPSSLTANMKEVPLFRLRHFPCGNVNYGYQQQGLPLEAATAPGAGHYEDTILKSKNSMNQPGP

[8] = target: T3, Protein kinase C zeta type (Homo sapiens) (UniProt Q05513); assay: Inhibition of human PKCzeta at 500 nM by HotSpot assay relative to control
T3 sequence (whole entry): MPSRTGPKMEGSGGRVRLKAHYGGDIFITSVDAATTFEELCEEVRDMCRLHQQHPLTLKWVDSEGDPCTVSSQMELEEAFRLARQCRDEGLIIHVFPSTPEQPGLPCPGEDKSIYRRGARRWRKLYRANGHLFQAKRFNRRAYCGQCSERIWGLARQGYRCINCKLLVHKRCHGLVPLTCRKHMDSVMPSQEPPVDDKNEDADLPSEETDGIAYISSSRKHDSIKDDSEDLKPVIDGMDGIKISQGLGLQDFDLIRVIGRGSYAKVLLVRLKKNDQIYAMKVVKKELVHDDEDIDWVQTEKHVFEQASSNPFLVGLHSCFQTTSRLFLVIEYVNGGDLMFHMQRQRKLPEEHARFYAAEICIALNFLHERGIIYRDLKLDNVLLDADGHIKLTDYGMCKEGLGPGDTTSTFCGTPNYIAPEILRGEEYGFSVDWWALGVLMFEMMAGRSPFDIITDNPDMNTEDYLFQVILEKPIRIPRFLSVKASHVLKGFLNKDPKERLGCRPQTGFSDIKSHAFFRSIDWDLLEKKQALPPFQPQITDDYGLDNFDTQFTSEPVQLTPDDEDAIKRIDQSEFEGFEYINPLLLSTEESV

[9] = target: T4, Tyrosine-protein kinase Tec (Homo sapiens) (UniProt P42680); assay: Inhibition of human TEC at 1.82 nM by HotSpot assay relative to control
T4 sequence (whole entry): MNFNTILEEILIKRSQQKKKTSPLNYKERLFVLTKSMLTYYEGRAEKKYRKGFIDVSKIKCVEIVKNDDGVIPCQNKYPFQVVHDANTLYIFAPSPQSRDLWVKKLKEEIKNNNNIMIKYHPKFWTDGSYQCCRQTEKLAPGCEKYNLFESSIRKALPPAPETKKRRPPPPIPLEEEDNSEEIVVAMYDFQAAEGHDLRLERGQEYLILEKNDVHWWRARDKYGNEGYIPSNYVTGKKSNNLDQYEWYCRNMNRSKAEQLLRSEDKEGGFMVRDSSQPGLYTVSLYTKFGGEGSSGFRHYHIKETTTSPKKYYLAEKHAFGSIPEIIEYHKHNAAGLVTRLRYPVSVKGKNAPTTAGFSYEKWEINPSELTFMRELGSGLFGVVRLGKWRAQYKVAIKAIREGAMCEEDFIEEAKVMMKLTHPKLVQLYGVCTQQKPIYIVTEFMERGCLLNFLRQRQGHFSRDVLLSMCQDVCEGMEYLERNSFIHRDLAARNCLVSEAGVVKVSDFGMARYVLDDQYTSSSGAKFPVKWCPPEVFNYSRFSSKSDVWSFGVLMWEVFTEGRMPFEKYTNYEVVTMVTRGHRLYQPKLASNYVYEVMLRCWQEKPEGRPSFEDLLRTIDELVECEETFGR

Chain of Mitogen-activated protein kinase kinase kinase 8 (Homo sapiens) (P41279 whole entry): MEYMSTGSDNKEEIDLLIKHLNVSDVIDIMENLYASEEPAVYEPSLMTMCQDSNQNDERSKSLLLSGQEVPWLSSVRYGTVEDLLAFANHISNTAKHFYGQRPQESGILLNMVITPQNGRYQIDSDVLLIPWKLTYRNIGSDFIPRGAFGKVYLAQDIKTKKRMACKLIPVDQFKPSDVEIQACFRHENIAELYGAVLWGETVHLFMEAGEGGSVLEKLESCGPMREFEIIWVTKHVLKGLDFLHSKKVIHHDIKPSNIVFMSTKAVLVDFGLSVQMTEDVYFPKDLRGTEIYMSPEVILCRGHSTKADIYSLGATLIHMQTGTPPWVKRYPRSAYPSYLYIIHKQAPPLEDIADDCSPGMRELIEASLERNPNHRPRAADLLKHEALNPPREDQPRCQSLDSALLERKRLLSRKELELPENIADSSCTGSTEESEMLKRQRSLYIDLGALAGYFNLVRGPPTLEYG

- inhibition [1]: -1.49%
- inhibition [2]: 4.92%
- inhibition [3]: 0.25%
- inhibition [4]: -7.27%
- inhibition [5]: 3.48%
- inhibition [6]: 4.89%
Compound: C[C@]1(O)C[C@@H](c2nc(-c3ccc4ccc(-c5ccccc5)nc4c3)c3c(N)nccn32)C1

Compound: Nc1n[nH]c2nnc(-c3c(-c4ccccc4)nn4ccccc34)cc12
- inhibition [7]: -7.89%
- inhibition [8]: 16.1%

- inhibition [9]: -3.36%
Compound: C[C@@]1(C(=O)Nc2ccc(F)nc2)CCCN1c1nc(Nc2cc(C3CC3)n[nH]2)c2cccn2n1
